Source: paper PMC8294059, “Identification and Immune Assessment of T Cell Epitopes in Five Plasmodium falciparum Blood Stage Antigens to Facilitate Vaccine Candidate Selection and Optimization” (Frontiers in Immunology, 2021)
Where a SMILES comes first, the peptide text is derived from it.

Legend:
HLA-B*0702 = HLA-B*0702 (Homo sapiens, UniProt P01889); test: In vitro class I HLA binding assay (fluorescence polarization competition); conditions: allele B*0702; cell-free competition, fluorescence polarization at 72 hours; Non-binder = no dose-dependent inhibition; read-out: IC50
Description: A cell-free class I HLA binding assay that allows for in vitro quantification of peptide-HLA binding affinity in a competition format was used. In this assay, a fluorescently labeled, high binding, control peptide is loaded onto 384-well ½-area plates along with unlabeled experimental peptides. To remove endogenous peptides and render the HLA A and B molecules receptive to binding, HLA is heated at 53°C for 15 minutes and immediately added to the assay. The mixture is then allowed to stand for three days. […] Binding of experimental peptides is expressed as the percent inhibition of the labeled control peptide (experimental fluorescence / control fluorescence, multiplied by 100). The percent inhibition values for each experimental peptide (across a range of molar concentrations) are used to calculate the concentration which inhibits 50% of the labeled control peptide’s specific binding. This value is referred to as the peptide’s IC50.

HLA-DRB1*0801 = HLA-DRB1*0801 (Homo sapiens, UniProt P01903+P01911, A100R/A103L/A169T/D86S/F76Y/H45Y/I96F/K41T/L162R/M171V/P40S/Q125H/Q178H/Q39Y/Q99D/R218S/R42G/S66Y/V115G/W38E); test: biochemical; assay type: binding; conditions: binding inhibition assay; NB = non-binder (no dose-dependent inhibition); read-out: DRB1*0801 IC50
How it was run: (§1)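 Peptides were titrated (final 100,000 nM down to 100 nM) in competition with a labeled reference binder for commercial HLA-DRB1 monomers.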

HLA-DRB1*1301 = HLA-DRB1*1301 (Homo sapiens, UniProt P01903+P01911, A100E/A169T/K41T/L162R/M171V/P40S/Q125H/Q178H/Q39Y/Q99D/R42S/S66N/T262R/W38E/Y61H); test: biochemical; assay type: binding; conditions: binding inhibition assay; NB = non-binder (no dose-dependent inhibition); read-out: DRB1*1301 IC50
How it was run: as §1

HLA-DRB1*1101 = HLA-DRB1*1101 (Homo sapiens, UniProt P01903+P01911, A100R/A169T/A87E/I96F/K41T/L162R/M171V/P40S/Q125H/Q178H/Q39Y/Q99D/R42S/S66Y/T262R/V115G/W38E); test: biochemical; assay type: binding; conditions: binding inhibition assay; NB = non-binder (no dose-dependent inhibition); read-out: DRB1*1101 IC50
How it was run: as §1

HLA-DRB1*0701 = HLA-DRB1*0701 (Homo sapiens, UniProt P01903+P01911, A100R/A102G/A103Q/D57E/D86V/E43K/F76Y/K127E/L162R/M171V/P40G/Q125H/Q99D/R33Q/R42Y/R54Q/S133A/S66F/T210M/V115G/Y107V/Y59L/Y89S); test: biochemical; assay type: binding; conditions: binding inhibition assay; NB = non-binder (no dose-dependent inhibition); read-out: DRB1*0701 IC50
How it was run: as §1

HLA-DRB1*0401 = target: T1, HLA-DRB1*0401 (Homo sapiens, UniProt P01903+P01911, A100K/A169T/F76Y/I96L/K127E/L162R/M171V/N62H/P40V/Q125Y/R42H/S133A/S149N/S66Y/V115G/V209L/W38E); test: biochemical; assay type: binding; conditions: binding inhibition assay; NB = non-binder (no dose-dependent inhibition); read-out: DRB1*0401 IC50
T1 construct: purchased
How it was run: as §1

HLA-DRB1*0101 = target: T2, HLA-DRB1*0101 (Homo sapiens, UniProt P01903+P01911, A100R/D57E/F55L/F60I/F76Y/I96L/L162R/M171V/P40L/Q125E/R42F/V115G/Y59C); test: biochemical; assay type: binding; conditions: binding inhibition assay; NB = non-binder (no dose-dependent inhibition); read-out: DRB1*0101 IC50
T2 construct: purchased
How it was run: as §1

HLA-DRB1*1501 = target: T3, HLA-DRB1*1501 (Homo sapiens, UniProt P01903+P01911); test: biochemical; assay type: binding; conditions: binding inhibition assay; NB = non-binder (no dose-dependent inhibition); read-out: DRB1*1501 IC50
T3 construct: purchased
How it was run: as §1

Row | Compound | IC50 (HLA-B*0702) [µM] | IC50 (HLA-DRB1*0801) [µM] | IC50 (HLA-DRB1*1301) [µM] | IC50 (HLA-DRB1*1101) [µM] | IC50 (HLA-DRB1*0701) [µM] | IC50 (HLA-DRB1*0401) [µM] | IC50 (HLA-DRB1*0101) [µM] | IC50 (HLA-DRB1*1501) [µM]
1 | CC[C@H](C)[C@H](NC(=O)[C@H](CC(N)=O)NC(=O)[C@H](CC(=O)O)NC(=O)[C@H](CC(N)=O)NC(=O)[C@@H]1CCCN1C(=O)[C@@H](N)CO)C(=O)N[C@@H](CC(N)=O)C(=O)N[C@H](C(=O)N[C@H](C(=O)O)[C@@H](C)O)C(C)C [EBA175_0979] (H-SPNDNINVT-OH) | 36.1 | – | – | – | – | – | – | –
2 | CC(C)C[C@H](NC(=O)[C@@H](NC(=O)[C@H](CC(N)=O)NC(=O)[C@H](CO)NC(=O)[C@H](CC(N)=O)NC(=O)[C@H](CCCNC(=N)N)NC(=O)[C@H](CC(=O)O)NC(=O)[C@H](CCC(=O)O)NC(=O)[C@@H]1CCCN1C(=O)[C@@H](N)CC(N)=O)[C@@H](C)O)C(=O)O [EBA175_1224] (H-NPEDRNSNTL-OH) | 2.7 | – | – | – | – | – | – | –
3 | CC(=O)N[C@H](C(=O)N[C@@H](CO)C(=O)N[C@@H](CS)C(=O)N[C@@H](Cc1ccc(O)cc1)C(=O)N[C@@H](CCCNC(=N)N)C(=O)N[C@H](C(=O)N[C@@H](CO)C(=O)N[C@@H](Cc1ccccc1)C(=O)N[C@@H](CC(N)=O)C(=O)N[C@@H](CC(C)C)C(=O)N[C@@H](CC(N)=O)C(=O)N[C@@H](CCCCN)C(=O)N[C@@H](CC(C)C)C(=O)N[C@@H](CCCCN)C(=O)N[C@@H](Cc1ccc(O)cc1)C(=O)N[C@H](C(=O)N[C@H](C(=O)N[C@@H](CCC(=O)O)C(=O)N[C@@H](CO)C(N)=O)[C@@H](C)O)C(C)C)C(C)C)C(C)C [RIPR_006] (Ac-VSCYRVSFNLNKLKYVTES-NH2) | – | 11.3 | 11.5 | 9.32 | 0.952 | 8.78 | 0.446 | 6.96
4 | CC[C@H](C)[C@H](NC(=O)[C@H](CC(N)=O)NC(=O)[C@H](CCC(N)=O)NC(=O)[C@H](CC(N)=O)NC(=O)[C@H](CC(N)=O)NC(=O)[C@H](Cc1ccccc1)NC(=O)[C@@H](NC(=O)[C@H](CS)NC(=O)[C@H](CC(C)C)NC(=O)[C@H](Cc1ccc(O)cc1)NC(=O)[C@H](CC(=O)O)NC(=O)[C@@H](N)Cc1ccc(O)cc1)C(C)C)C(=O)N[C@H](C(=O)N[C@@H](CO)C(=O)N[C@@H](CC(=O)O)C(=O)N[C@@H](CCCCN)C(=O)N[C@@H](CC(N)=O)C(N)=O)[C@@H](C)O [RIPR_007] (H-YDYLCVFNNQNITSDKN-NH2) | – | 99 | 9.26 | 8.65 | 3.05 | 4.6 | 2.78 | 0.165
5 | CC[C@H](C)[C@H](NC(=O)[C@H](CCC(=O)O)NC(=O)[C@@H](NC(=O)[C@H](CCCCN)NC(=O)[C@H](CCCCN)NC(C)=O)C(C)C)C(=O)N[C@@H](Cc1ccccc1)C(=O)N[C@@H](CCCNC(=N)N)C(=O)N[C@@H](CO)C(=O)N[C@@H](CCCNC(=N)N)C(=O)N[C@@H](Cc1ccccc1)C(=O)N[C@@H](CO)C(=O)N[C@@H](CO)C(=O)N[C@@H](CCCCN)C(=O)N[C@@H](CC(C)C)C(=O)N[C@@H](CCC(N)=O)C(=O)N[C@@H](CS)C(=O)N[C@@H](CCC(N)=O)C(N)=O [RIPR_011] (Ac-KKVEIFRSRFSSKLQCQ-NH2) | – | 65.6 | 9.43 | 9.22 | 13.7 | 22 | 1.36 | 0.007
6 | CC[C@H](C)[C@H](NC(=O)[C@H](CS)NC(=O)[C@H](CCC(=O)O)NC(=O)CNC(=O)[C@H](CCCNC(=N)N)NC(=O)[C@H](CO)NC(=O)[C@H](CO)NC(=O)[C@H](CCCNC(=N)N)NC(=O)[C@H](Cc1ccc(O)cc1)NC(=O)[C@H](Cc1ccc(O)cc1)NC(=O)[C@H](Cc1c[nH]cn1)NC(=O)[C@H](CCC(=O)O)NC(=O)[C@H](CCCCN)NC(C)=O)C(=O)N[C@@H](CC(C)C)C(=O)N[C@@H](CC(N)=O)C(=O)N[C@@H](CC(=O)O)C(N)=O [RIPR_017] (Ac-KEHYYRSSRGECILND-NH2) | – | 6.44 | > 100 | 1.38 | 0.489 | > 100 | 0.025 | 58.2
7 | CC[C@H](C)[C@H](NC(=O)[C@H](CCCCN)NC(=O)[C@H](CCCCN)NC(=O)[C@H](CCCCN)NC(=O)[C@H](CC(C)C)NC(=O)[C@H](Cc1ccc(O)cc1)NC(=O)[C@@H](NC(=O)[C@@H](NC(=O)[C@@H](NC(=O)[C@H](Cc1c[nH]cn1)NC(=O)[C@H](Cc1ccccc1)NC(=O)[C@@H](NC(=O)[C@H](CCC(=O)O)NC(=O)[C@H](CC(N)=O)NC(C)=O)[C@@H](C)CC)[C@@H](C)O)[C@@H](C)CC)[C@@H](C)CC)C(=O)NCC(=O)N[C@@H](CC(N)=O)C(=O)N[C@@H](CO)C(=O)N[C@H](C(=O)N[C@H](C(=O)N[C@@H](Cc1ccc(O)cc1)C(=O)N[C@@H](CC(=O)O)C(N)=O)[C@@H](C)CC)C(C)C [RIPR_019] (Ac-NEIFHTIIYLKKKIGNSVIYD-NH2) | – | 1.35 | 3.49 | 0.066 | 3.86 | 3.03 | 0.346 | 0.898
